# Laboratory results taken from US20140031434A1, “Use of Patchouli Alcohol in Preparation of Drug Against Helicobacter Pylori” (priority 2011, published 2014).
# Marks after values point to notes of the source that are not given here.
# What was measured:
# Microsporum lanosum = assay: Selective inhibitory effect, in vitro MIC; assay type: cell-based; details: read-out: In vitro Minimum Inhibitory Concentration MIC
# From the text: (§1) Strains: Lactobacillus acidophilus, E. coli, Staphylococcus epidermidis, yeast, thermophilic Bifidobacterium, Staphylococcus aureus (26112), Alpha-Hemolytic Streptococcus (32209), Shigella (32013), Streptococcus pneumoniae (31001), Catarrhal, Corynebacterium diphtheriae (38101), Escherichia coli (44113), Pseudomonas aeruginosa (10211), Salmonella Typhi and Candida albicans (98001), Catarrhal is isolated from specimen collected from the throat in the bacterial laboratory, Candida albicans is donated by Guangzhou Institute for Food and Drug Control, all other strains are provided by Beijing Institute for Food and Drug Control; Trichophyton gypseum (4097), Trichophyton cerebriforme, Trichophyton tonsurans, Microsporum gypseum, Microsporum lanosum, Epidermophyton floccosum (previously known as Trichophyton floccosum) and Trichophyton rubrum are donated by Shanghai Huashan Hospital.
# (§2) 3. Culture medium: nutrient broth, 1% dextrose broth, 1% serum broth, Sabouraud agar plate, prepared by conventional preparation method.
# (§3) Drug preparation: Use nutrient broth to prepare a series of 14 drug solution in which the content of drug per ml are, 0.1 g, 0.05 g, 0.025 g . . . 1.22×10^−5 g respectively and the total volume of each test tube is 1 ml, and sterile by steam sterilization. For Streptococcus testing, 1% glucose is added to the sterile drug solution, for Streptococcus pneumoniae and Corynebacterium diphtheria, 10% inactivated rabbit serum is added, and for Candida albicans, the drug solution is prepared by using Sabouraud broth.
# (§4) Control: for strain control, testing bacteria is added to non-drug culture media; for drug control, no bacteria is added to the drug solution.
# (§5) For each drug solution at different concentration and for bacteria control, add 1 ml of 1:2000 testing bacteria solution (8 hours cultured substance) to each tube, incubate bacteria culture at 37° C. for 18 hours and observe the results. For Candida albicans, 24 hours cultured substance is used, and incubate bacteria culture at 28° C. for 48 hours after bacteria is added to the drug solution and then observe the results. Turbidity is the indicator and visually observe each tube to determine if there is any bacterial growth.
# (§6) Determine minimum inhibitory concentration (MIC): MIC is the lowest concentration of an antimicrobial that will inhibit the visible growth of a microorganism.
# Trichophyton rubrum = assay: Selective inhibitory effect, in vitro MIC; assay type: cell-based; details: read-out: In vitro Minimum Inhibitory Concentration MIC
# From the text: as §1, §2, §3, §4, §5, §6
# Epidermophyton floccosum = assay: Selective inhibitory effect, in vitro MIC; assay type: cell-based; details: read-out: In vitro Minimum Inhibitory Concentration MIC
# From the text: as §1, §2, §3, §4, §5, §6
# [1] = test system: Trichophyton cerebriforme; assay: Selective inhibitory effect, in vitro MIC; assay type: cell-based; details: read-out: In vitro Minimum Inhibitory Concentration MIC
# From the text: as §1, §2, §3, §4, §5, §6
# Microsporum gypseum = assay: Selective inhibitory effect, in vitro MIC; assay type: cell-based; details: Nannizzia gypsea, read-out: In vitro Minimum Inhibitory Concentration MIC
# From the text: as §1, §2, §3, §4, §5, §6
# [2] = test system: Trichophyton gypseum (4097); assay: Selective inhibitory effect, in vitro MIC; assay type: cell-based; details: Nannizzia gypsea, read-out: In vitro Minimum Inhibitory Concentration MIC
# From the text: as §1, §2, §3, §4, §5, §6
# Trichophyton tonsurans = assay: Selective inhibitory effect, in vitro MIC; assay type: cell-based; details: read-out: In vitro Minimum Inhibitory Concentration MIC
# From the text: as §1, §2, §3, §4, §5, §6
# Candida albicans (98001) = assay: Selective inhibitory effect, in vitro MIC (broth dilution, turbidity); assay type: cell-based; details: 48 h, read-out: In vitro Minimum Inhibitory Concentration MIC
# From the text: as §1, §2
# (§7) Drug preparation: Use nutrient broth to prepare a series of 14 drug solution in which the content of drug per ml are, 0.1 g, 0.05 g, 0.025 g . . . 1.22×10^−5 g respectively and the total volume of each test tube is 1 ml, and sterile by steam sterilization. […]
# [3] = test system: Helicobacter pylori (Hp) ATCC43504; assay: In vitro anti-Helicobacter pylori effect, minimum inhibitory concentration (filter paper on Columbia Blood Agar Plate); assay type: cell-based; details: Helicobacter pylori ATCC43504, 37° C. micro-aerobic, 72 hours
# Helicobacter pylori [4] = assay: In vivo anti-Helicobacter pylori effect, Hp infection model, rapid urease test of pyloric antrum tissue; set-up: species or system BALB/c mice; details: 1 time per day for 8 weeks
# Description: (§8) Take SPF (specific pathogen free) BALB/c mice, equal numbers of male and female, each weight 18˜20 g; divide randomly into three groups, which are normal control group, model control group and triple therapy group. Give the corresponding experimental drugs according to table 1 below. Hp infection model is prepared by using antibiotics and oral gavage of Hp. Day 1, oral gavage 0.5 ml/mouse antibiotics mixture (0.25 ml ampicillin (20 mg/ml), 0.15 ml gentamicin (4 mg/ml), 0.1 ml azithromycin (50 mg/ml)) for three consecutive days for all testing animals, use equal volume of physiological saline for normal control group; starting from day 4, water fasting for 12 hours, oral gavage freshly prepared Hp suspended solution (0.5 ml/mouse/day, concentration 10^8 CFU/ml) for seven consecutive days, use equal volume of physiological saline for normal control group. Starting from day 11, oral gavage testing drug to the testing animals (use equal volume of physiological saline for normal control group), 1 time per day for 8 consecutive weeks. After the last drug administration, fasting for 24 hours. Take serum sample by orbital bleeding and centrifugation. Test for Helicobacter pylori urease antibody (according to the instruction of the instrument); sacrifice mice, tissue from pyloric antrum is first taken for rapid urease test and then observe for 3 minutes, and determine the test results in which strong positive refers to color change at peripheral portion from yellow to red within 1 minute, weak positive refers to color change within 3 minutes, and negative refers to no color change; the remaining stomach tissue is fixed in 10% formalin, then embed and cutting for carbol-fuchsin test, observe the Hp infection condition of the gastric mucosa and determine the condition.
# in vivo [5] = details: for LD50 at 14 days: both, KM, mouse, in vivo, Bliss method
# Description: (§9) 1.3 Testing animal: KM mice, SPF grade, weight 18-22 g, equal numbers of male and female, obtained from Animal Laboratory Center of Guangzhou University of Chinese Medicine, Certificate number: SCXK (Yue) 2008-0020.
# (§10) 2.1 Preparation of drug solution: weight a predetermined quantity of patchouli alcohol and put it into a beaker, add suitable amount of peanut oil into the beaker as solvent, mix while heating until the patchouli alcohol is dissolved. Cool under room condition and then add peanut oil to the predetermined amount to obtain the patchouli alcohol solution.
# (§11) 2.2 Animal grouping: Take 200 mice, weight between 18˜22 g, divided by weight and randomly divided into 4 groups, namely: orogastric gavage drug group, orogastric gavage control group (equal volume of peanut oil is used), intraperitoneal injection drug group, Intraperitoneal injection control group (equal volume of peanut oil is used), each group includes 50 mice, equal numbers of male and female, raise for one week before experiment for the mice to adapt to the environment, water fasting for 24 hours before experiment.
# Set the initial dose at 6.32 g/kg, at a ratio of 1:0.75 divide 5 groups, each group includes 10 mice, equal numbers of male and female, give patchouli alcohol solution to each of the mice once by intraperitoneal injection according to the dosage at 2.0 g/kg, 2.67 g/kg, 3.56 g/kg, 4.70 g/kg, 6.32 g/kg for each group. Observe consecutively for 14 days, record toxicity reaction and lethal rate every day, and calculate the medium lethal dose (LD50) by Bliss method.
# Helicobacter pylori [6] = assay: In vivo anti-Helicobacter pylori effect, Hp infection model, serum urease antibody to Helicobacter pylori; set-up: species or system BALB/c mice; details: 1 time per day for 8 weeks
# Description: as §8
# [7] = cited from earlier work
# in vivo [8] = details: orogastric gavage; for LD50 at 14 days: both, KM, mouse, in vivo, po, Bliss method
# Description: as §9, §10, §11
# Set the initial dose at 7.90 g/kg, at a ratio of 1:0.75 divide 5 groups, each group includes 10 mice, equal numbers of male and female, give patchouli alcohol solution to mice once by orogastric gavage according to the dosage at 2.5 g/kg, 3.33 g/kg, 4.44 g/kg, 5.93 g/kg, 7.90 g/kg for each group. Observe consecutively for 14 days, record toxicity reaction and lethal rate every day, and calculate the medium lethal dose (LD50) by Bliss method.
# [9] = test system: Streptococcus pneumoniae (31001); assay: Selective inhibitory effect, in vitro MIC (broth dilution, turbidity); assay type: cell-based; details: 10% inactivated rabbit serum added, 37° C., 18 hours, read-out: In vitro Minimum Inhibitory Concentration MIC
# From the text: as §1, §2, §7
# Helicobacter pylori [10] = assay: In vivo anti-Helicobacter pylori effect, Hp infection model, carbol-fuchsin staining of stomach tissue; set-up: species or system BALB/c mice
# Description: as §8
# Histopathological findings: after staining stomach tissue by carbol-fuchsin method, the Hp become […] in color, have a curved or rod shape, and mainly locate in gastric pit surface and mucus.
# [11] = High Dose 40 mg/kg oral gavage, 10 animals
# [12] = Low Dose 10 mg/kg oral gavage, 11 animals
# [13] = Medium Dose 20 mg/kg oral gavage, 11 animals
# [14] = mice, intraperitoneal injection
# [15] = mice, intraperitoneal injection, pre-test
# [16] = 10 mg/kg oral gavage, 11 animals
# [17] = 20 mg/kg oral gavage, 11 animals
# [18] = 40 mg/kg oral gavage, 10 animals
structure (smiles),measurement,setting,value
CC(=O)N1CCN(c2ccc(OCC3COC(Cn4ccnc4)(c4ccc(Cl)cc4Cl)O3)cc2)CC1 (stereo not drawn) [Ketoconazole],MIC,Microsporum lanosum,24500 µg/mL
same,MIC,Trichophyton rubrum,24400 µg/mL
same,MIC,Epidermophyton floccosum,383 µg/mL
same,MIC,[1],383 µg/mL
same,MIC,Microsporum gypseum,383 µg/mL
same,MIC,[2],383 µg/mL
same,MIC,Trichophyton tonsurans,49000 µg/mL
same,MIC,Candida albicans (98001),12200 µg/mL
"CC1(C)S[C@@H]2[C@H](NC(=O)[C@H](N)c3ccc(O)cc3)C(=O)N2[C@H]1C(=O)O [Amoxicillin, reference compound]",MIC (minimum inhibitory concentration),[3],120 µg/mL
"C[C@H]1CC[C@@]2(O)C(C)(C)[C@@H]3CC[C@@]2(C)[C@H]1C3 [Patchouli Alcohol, (1R,4S,4aS,6R,8aS)-4,a,9,9-tetramethyloctahydro-1,6-methanonaphthalen-1(2H)-ol]",MIC (minimum inhibitory concentration),[3],78 µg/mL
same,Strong positive (count),Helicobacter pylori [4]; [11],2 count
same,Total Positive Rate (%),Helicobacter pylori [4]; [11],40.00%
same,Weak positive (count),Helicobacter pylori [4]; [11],2 count
same,Strong positive (count),Helicobacter pylori [4]; [12],0 count
same,Total Positive Rate (%),Helicobacter pylori [4]; [12],36.36%
same,Weak positive (count),Helicobacter pylori [4]; [12],4 count
same,Strong positive (count),Helicobacter pylori [4]; [13],0 count
same,Total Positive Rate (%),Helicobacter pylori [4]; [13],27.27* %
same,Weak positive (count),Helicobacter pylori [4]; [13],3 count
same,LD50 at 14 days,"in vivo [5]; LD50, mice, intraperitoneal acute toxicity (sentence prints orogastric gavage), peanut oil solution",3140 mg/kg
same,LD50 at 14 days,"in vivo [5]; ip, LD50 95% confidence interval lower limit, mice, intraperitoneal acute toxicity",2660 mg/kg
same,LD50 at 14 days,"in vivo [5]; ip, LD50 95% confidence interval upper limit, mice, intraperitoneal acute toxicity",3680 mg/kg
same,autopsy of the dead mice,in vivo [5]; [14],no obvious abnormality is found in major organs
same,time at which death usually occurs,in vivo [5]; [14],6˜12 hours
same,maximum lethal dose,in vivo [5]; [15],6320 mg/kg
same,minimum lethal dose,in vivo [5]; [15],2000 mg/kg
same,Positive (Count),Helicobacter pylori [6]; [16],0 Count
same,Positive rate (%),Helicobacter pylori [6]; [16],0.00** %
same,Positive (Count),Helicobacter pylori [6]; [17],0 Count
same,Positive rate (%),Helicobacter pylori [6]; [17],0.00** %
same,Positive (Count),Helicobacter pylori [6]; [18],0 Count
same,Positive rate (%),Helicobacter pylori [6]; [18],0.00** %
same,solubility in ethanol and ether and common organic solvent,"[7]; ethanol, ether, common organic solvent",soluble
same,solubility in water,[7]; water,insoluble
same,LD50 at 14 days,"in vivo [8]; LD50 95% confidence interval lower limit, mice",4040 mg/kg
same,LD50 at 14 days,"in vivo [8]; LD50 95% confidence interval upper limit, mice",5500 mg/kg
same,LD50 at 14 days,"in vivo [8]; LD50, mice, peanut oil solution",4690 mg/kg
same,autopsy of the dead mice,in vivo [8]; mice,no obvious abnormality is found in major organs
same,time at which death usually occurs,in vivo [8]; mice,6˜12 hours
same,maximum lethal dose,"in vivo [8]; mice, pre-test",7900 mg/kg
same,minimum lethal dose,"in vivo [8]; mice, pre-test",2500 mg/kg
same,MIC,[9],510 µg/mL
same,animals with blue Hp found in the gastric pit (positive/total),Helicobacter pylori [10]; high dose group,6/11
same,infection rate,Helicobacter pylori [10]; high dose group,60%
same,animals with blue Hp found in the gastric pit and the mucosal surface (positive/total),Helicobacter pylori [10]; low dose group,9/11
same,infection rate,Helicobacter pylori [10]; low dose group,81.81%
same,animals with blue Hp found in the gastric pit (positive/total),Helicobacter pylori [10]; medium dose group,7/11
same,infection rate,Helicobacter pylori [10]; medium dose group,63.63%
